Test results as given in PubChem BioAssay AID1963442 (Molecular Pharmacology Branch, DTP, NCI, 2024).
Where “and” joins values, the source holds several entries; their conditions need not be identical. Equal entries are not always repeated.

Tested on: MPNST complex spheroid with HUVEC/MSC, growth, % test/control
Assay: Anticancer human tumor MPNST cell line growth inhibition [Asc];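 further: compounds left on spheroids for seven days before reading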
Conditions: for viability, T/C: stronger effect = lower value
In short: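 Complex solid-tumor spheroids incorporating human endothelial and mesenchymal stem cells received single agents or combinations over half-log dilution ranges anchored to clinical Cmax.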

C#Cc1c(F)ccc2cc(O)cc(-c3ncc4c(N5CC6CCC(C5)N6)nc(OCC56CCCN5CC(F)C6)nc4c3F)c12 (centres undefined) + CNC(C)C(=O)NC1CN(S(=O)(=O)c2cccc(S(=O)(=O)N3CCC4CCC(C(=O)NC(c5ccccc5)c5ccccc5)N4C(=O)C(NC(=O)C(C)NC)C3)c2)CCC2CCC(C(=O)NC(c3ccccc3)c3ccccc3)N2C1=O
IC50 (curve of first compound, second compound 0.00316 µM): > 10 µM
IC50 (curve of first compound, second compound 0.01 µM): > 10 µM
IC50 (curve of first compound, second compound 0.0316 µM): > 10 µM
IC50 (curve of first compound, second compound 0.1 µM): > 10 µM
IC50 (curve of first compound, second compound 0.316 µM): > 10 µM
IC50 (curve of first compound, second compound 1 µM): > 10 µM
viability, T/C (second compound 0.00316 µM, first compound 0.0316 µM): 65.6%
viability, T/C (second compound 0.00316 µM, first compound 0.1 µM): 43.9%
viability, T/C (second compound 0.00316 µM, first compound 0.316 µM): 57.7%
viability, T/C (second compound 0.00316 µM, first compound 1 µM): 78.2%
viability, T/C (second compound 0.00316 µM, first compound 3.16 µM): 75.3%
viability, T/C (second compound 0.00316 µM, first compound 10 µM): 53%
viability, T/C (second compound 0.01 µM, first compound 0.0316 µM): 96%
viability, T/C (second compound 0.01 µM, first compound 0.1 µM): 99.5%
viability, T/C (second compound 0.01 µM, first compound 0.316 µM): 60.1%
viability, T/C (second compound 0.01 µM, first compound 1 µM): 63.5%
viability, T/C (second compound 0.01 µM, first compound 3.16 µM): 73.1%
viability, T/C (second compound 0.01 µM, first compound 10 µM): 46.2%
viability, T/C (second compound 0.0316 µM, first compound 0.0316 µM): 103%
viability, T/C (second compound 0.0316 µM, first compound 0.1 µM): 66.8%
viability, T/C (second compound 0.0316 µM, first compound 0.316 µM): 69%
viability, T/C (second compound 0.0316 µM, first compound 1 µM): 70.5%
viability, T/C (second compound 0.0316 µM, first compound 3.16 µM): 52.1%
viability, T/C (second compound 0.0316 µM, first compound 10 µM): 56.6%
viability, T/C (second compound 0.1 µM, first compound 0.0316 µM): 56%
viability, T/C (second compound 0.1 µM, first compound 0.1 µM): 67.8%
viability, T/C (second compound 0.1 µM, first compound 0.316 µM): 78.2%
viability, T/C (second compound 0.1 µM, first compound 1 µM): 64.1%
viability, T/C (second compound 0.1 µM, first compound 3.16 µM): 63.2%
viability, T/C (second compound 0.1 µM, first compound 10 µM): 53.1%
viability, T/C (second compound 0.316 µM, first compound 0.0316 µM): 73.2%
viability, T/C (second compound 0.316 µM, first compound 0.1 µM): 75.1%
viability, T/C (second compound 0.316 µM, first compound 0.316 µM): 70%
viability, T/C (second compound 0.316 µM, first compound 1 µM): 58.3%
viability, T/C (second compound 0.316 µM, first compound 3.16 µM): 60.3%
viability, T/C (second compound 0.316 µM, first compound 10 µM): 67.3%
viability, T/C (second compound 1 µM, first compound 0.0316 µM): 76%
viability, T/C (second compound 1 µM, first compound 0.1 µM): 79.5%
viability, T/C (second compound 1 µM, first compound 0.316 µM): 69.4%
viability, T/C (second compound 1 µM, first compound 1 µM): 82.5%
viability, T/C (second compound 1 µM, first compound 3.16 µM): 62.2%
viability, T/C (second compound 1 µM, first compound 10 µM): 84.3%

CCN1C(C(=O)NC23CCC(C(=O)O)(CC2)CC3)C(c2cccc(Cl)c2F)C2(C(=O)Nc3cc(Cl)ccc32)C12CCCCC2 (centres undefined)
viability, T/C (compound 0.00949 µM): 86.6% and 74.5%
IC50 (compound alone, run of 10/11/2022): > 3 µM
IC50 (curve of compound): 1.81 µM and > 3 µM

Cc1nc(N2CCC3(CC2)COC(C)C3N)c(CO)nc1Sc1ccnc(N)c1Cl (centres undefined) + CCN1C(C(=O)NC23CCC(C(=O)O)(CC2)CC3)C(c2cccc(Cl)c2F)C2(C(=O)Nc3cc(Cl)ccc32)C12CCCCC2
IC50 (curve of first compound, second compound 0.03 µM): > 3 µM
IC50 (curve of first compound, second compound 0.0949 µM): > 3 µM
IC50 (curve of first compound, second compound 0.3 µM): > 3 µM
IC50 (curve of first compound, second compound 0.949 µM): > 3 µM
IC50 (curve of first compound, second compound 3 µM): > 3 µM
viability, T/C (second compound 0.03 µM, first compound 0.00949 µM): 92%
viability, T/C (second compound 0.03 µM, first compound 0.03 µM): 84.1%
viability, T/C (second compound 0.03 µM, first compound 0.0949 µM): 90.7%
viability, T/C (second compound 0.03 µM, first compound 0.3 µM): 87.9%
viability, T/C (second compound 0.03 µM, first compound 0.949 µM): 101%
viability, T/C (second compound 0.03 µM, first compound 3 µM): 75.5%
viability, T/C (second compound 0.0949 µM, first compound 0.00949 µM): 83.8%
viability, T/C (second compound 0.0949 µM, first compound 0.03 µM): 89%
viability, T/C (second compound 0.0949 µM, first compound 0.0949 µM): 92.2%
viability, T/C (second compound 0.0949 µM, first compound 0.3 µM): 82.2%
viability, T/C (second compound 0.0949 µM, first compound 0.949 µM): 75.5%
viability, T/C (second compound 0.0949 µM, first compound 3 µM): 58.3%
viability, T/C (second compound 0.3 µM, first compound 0.00949 µM): 101%
viability, T/C (second compound 0.3 µM, first compound 0.03 µM): 83.6%
viability, T/C (second compound 0.3 µM, first compound 0.0949 µM): 92.8%
viability, T/C (second compound 0.3 µM, first compound 0.3 µM): 77.2%
viability, T/C (second compound 0.3 µM, first compound 0.949 µM): 83.2%
viability, T/C (second compound 0.3 µM, first compound 3 µM): 63.4%
viability, T/C (second compound 0.949 µM, first compound 0.00949 µM): 77.9%
viability, T/C (second compound 0.949 µM, first compound 0.03 µM): 89.9%
viability, T/C (second compound 0.949 µM, first compound 0.0949 µM): 70%
viability, T/C (second compound 0.949 µM, first compound 0.3 µM): 76.7%
viability, T/C (second compound 0.949 µM, first compound 0.949 µM): 68%
viability, T/C (second compound 0.949 µM, first compound 3 µM): 54.4%
viability, T/C (second compound 3 µM, first compound 0.00949 µM): 66.3%
viability, T/C (second compound 3 µM, first compound 0.03 µM): 75.9%
viability, T/C (second compound 3 µM, first compound 0.0949 µM): 72.4%
viability, T/C (second compound 3 µM, first compound 0.3 µM): 67.8%
viability, T/C (second compound 3 µM, first compound 0.949 µM): 52.3%
viability, T/C (second compound 3 µM, first compound 3 µM): 55.8%

C=CC(=O)N1CCN(c2nc(=O)n(-c3c(C)ccnc3C(C)C)c3nc(-c4c(O)cccc4F)c(F)cc23)C(C)C1 (centres undefined)
viability, T/C (compound 0.0316 µM): 99.3% and 91.7% and 80.4%
viability, T/C (compound 0.1 µM): 81% and 76.5% and 90.9%
viability, T/C (compound 0.316 µM): 99% and 90.2% and 92.3%
viability, T/C (compound 1 µM): 87.4% and 78.7% and 108%
viability, T/C (compound 3.16 µM): 104% and 121% (2×)
viability, T/C (compound 10 µM): 101% and 143% and 119%
IC50 (curve of compound): > 10 µM

CCN1CCN(Cc2ccc(Nc3ncc(F)c(-c4cc(F)c5nc(C)n(C(C)C)c5c4)n3)nc2)CC1
viability, T/C (compound 0.00316 µM): 73% and 74.2% and 85.2%
viability, T/C (compound 0.01 µM): 91.6% and 72.8% and 69.6%
viability, T/C (compound 0.0316 µM): 92.8% and 78.2% and 78.8%
viability, T/C (compound 0.1 µM): 70.1% and 54% and 60.7%
viability, T/C (compound 0.316 µM): 84.9% and 63% and 78.3%
viability, T/C (compound 1 µM): 92.1% and 65.1% and 69%
IC50 (curve of compound): > 1 µM
